Results on 5 molecules are retold here after patent US20250304939A1, “TAILORED ANTI-FUNGAL DRUGS AND TOOLS TO DIAGNOSE INVASIVE FUNGAL INFECTIONS” (priority 2022, published 2025).

Changes are numbered by the printed parent chain.

Assay [1] has as its system A. fumigatus conidia. Nature of the assay: Biotin-tagged 30 amino acid peptide binding to heat-inactivated conidia, FITC-streptavidin flow cytometry. Also on record: species or system Aspergillus fumigatus. The following applies: for peptide binding to A. fumigatus conidia: 5 μg/ml N-term biotin-tagged peptide, 1×10^7 heat-inactivated conidia/ml. As for the experimental part:
(§1) A 30 amino acid peptide comprising the KLMAR sequence was generated with an N-terminal biotin-tag. […] 5 μg/ml of the N-term biotin-tagged peptides were incubated with 1×10^7 heat-inactivated conidia/ml from different Aspergillus species and from fungi belonging to the Mucorales order. The peptide binding was subsequently detected with a FITC-coupled streptavidin using flow cytometry (Beckman Coulter, Gallios).
Three 30 amino acid peptides from the CCP2 domain of MASP-1 were generated with an N-terminal biotin-tag. CCP2 Ctrl.Pep1: […], CCP2 Ctrl.Pep2: […], CCP2 Ctrl.Pep3: […]. 5 and 10 μg/ml of the N-term biotin-tagged peptides were incubated with 1×10^7 heat-inactivated A. fumigatus conidia/ml and the peptide binding was detected with a FITC-coupled streptavidin using flow cytometry (BD, Celesta).
5 μg/ml of the N-term biotin-tagged peptides with C→S mutations at position 7 (C7S), position 11 (C11S) and both positions (C7S+C11S) were incubated with 1×10^7 heat-inactivated A. fumigatus conidia/ml. The peptide binding was subsequently detected with a FITC-coupled streptavidin using flow cytometry (BD, Celesta).
5 μg/ml of the N-term biotin-tagged MASP-1 peptide were incubated with 1×10^7 heat-inactivated A. fumigatus conidia/ml in barbital buffer (containing Ca2+) with or without 20 mM EDTA that chelates the calcium. The peptide binding was subsequently detected with a FITC-coupled streptavidin using flow cytometry (Beckman Coulter, Gallios).
The binding of the MASP-1 peptide was compared to the binding of a MASP-3 peptide covering the same protein region and thus having partly overlapping amino acid sequences. MASP-1 peptide: […] (SEQ ID NO: 1). MASP-3 peptide: […] (SEQ ID NO: 3). 5 μg/ml of the N-term biotin-tagged peptides were incubated with 1×10^7 heat-inactivated A. fumigatus conidia/ml. The peptide binding was subsequently detected with a FITC-coupled streptavidin using flow cytometry (Beckman Coulter, Gallios).

The subject of a further assay is HMEC-1 cells. Nature of the assay: Peptide binding to human cells, flow cytometry. The following applies: 5 μg/ml; 1×10^7 cells/ml. As for the experimental part:
(§2) 5 μg/ml of the N-term biotin-tagged MASP-1 peptide was incubated with THP-1 and HMEC-1 cells (1×10^7 cells/ml). The peptide binding was subsequently detected with a FITC-coupled streptavidin using flow cytometry (Beckman Coulter, Gallios).
(In general: A flow cytometer gives signals particle by particle.)

The subject of a further assay is THP-1 cells. The assay can be described thus: Peptide binding to human cells, flow cytometry. The conditions noted are these: 5 μg/ml; 1×10^7 cells/ml. How it is done:
as §2

A further assay deals with A. niger. Nature of the assay: Biotin-tagged peptide binding to heat-inactivated conidia, flow cytometry. Also on record: species or system Aspergillus niger. The conditions noted are these: 5 μg/ml. How it is done:
as §1

A further assay relates to A. terreus. The assay is described as above. The following applies: 5 μg/ml. More on the design: species or system Aspergillus terreus. How it is done: as §1
Another assay has as its system A. flavus. The assay is described as above. Also on record: species or system Aspergillus flavus. The following applies: 5 μg/ml. How it is done:
as §1

In a further assay the test system is Lichtemia corymbifera. The description is as above. The conditions noted are these: 5 μg/ml. As for the experimental part:
as §1

The next assay has as its system Mucor circinelloides. Described as above. The conditions noted are these: 5 μg/ml. How it is done:
as §1

Another assay relates to Rhizopus arrhizus. The description is as above. The conditions noted are these: 5 μg/ml. As for the experimental part:
as §1

A further assay relates to Aspergillus fumigatus. The assay can be described thus: Recombinant MASP-1 binding to A. fumigatus growth stages, fluorescence microscopy. The following applies: 5 μg/ml, resting conidia, swollen conidia, germ tubes and hyphae. As for the experimental part: MASP-1 binding was tested on the different growth stages of A. fumigatus. First, the A. fumigatus conidia were incubated on microscopy glass slides for 0, 4, 8 and 16 hours to obtain resting conidia, swollen conidia, germ tubes and hyphae. Recombinant MASP-1 was then added in a concentration of 5 μg/ml and binding was detected with a pan anti-MASP-1/-3/MAP-1 monoclonal antibody 8B3 and Alexa fluor 488-coupled goat anti-mouse antibody. […] This is very surprising since until now, MASP-1 is known only to interact with endogenous pattern recognition molecules (PRMs) and not so-called pathogen-associated molecular patterns (PAMPs).
MASP-1, a serine protease from the complement system, binds directly to various pathogenic fungi, for example, Aspergillus fumigatus and this knowledge can be utilized to design a targeted antifungal compound. MASP-1 binding was tested on the different growth stages of A. fumigatus. First, the A. fumigatus conidia were incubated on microscopy glass slides for 0, 4, 8 and 16 hours to obtain resting conidia, swollen conidia, germ tubes and hyphae. Recombinant MASP-1 was then added in a concentration of 5 μg/ml and binding was detected with a pan anti-MASP-1/-3/MAP-1 monoclonal antibody 8B3 and Alexa fluor 488-coupled goat anti-mouse antibody.

Assay [2] concerns A. fumigatus conidia. The assay can be described thus: rMASP-1 (wild-type/mutated) binding to heat-inactivated conidia, flow cytometry. More on the design: species or system Aspergillus fumigatus. The conditions noted are these: 5 μg/ml, 1×10^7 heat-inactivated conidia/ml. How it is done: A. fumigatus conidia were heat-inactivated (15 min 121° C.) to eliminate contamination in the laboratory. 1×10^7 conidia/ml were incubated with 5 μg/ml recombinant wild-type MASP-1 (^444KLMAR^448) or mutated rMASP-1 (^444DDDDK^448). The binding of MASP-1 was detected using 10 μg/ml of a pan anti-MASP-1/-3/MAP-1 monoclonal antibody 8B3 followed by a FITC-conjugated goat anti-mouse polyclonal antibody. Binding was measured as the mean fluorescence intensity using flow cytometry (Beckman Coulter, Gallios).
The experiment in this example 2A was performed using the method as described in example 2.

On to “MASP-3 peptide: 30 aa MASP-3 peptide covering the same protein region, GRSLPTCLPECGQPSRSLPSLVKRIIGGRN (SEQ ID NO: 3) (listed as Homo sapiens) [reference compound]”, for which, in the assay on A. fumigatus conidia [1], the “peptide binding to A. fumigatus conidia” value is reported as “did not bind”. In the assay with HMEC-1 cells, the “peptide binding to HMEC-1 endothelial cell line” value is “Neither of the 30 aa MASP peptides bind”. Further, the “peptide binding to THP-1 monocytic cell line” value in the assay on THP-1 cells is “Neither of the 30 aa MASP peptides bind”.

For the molecule “MASP-1 peptide: 30 amino acid MASP-1 peptide GRSLPTCLPVCGLPKFSRKLMARIFNGRPA (SEQ ID NO: 1)”, the “peptide binding to A. fumigatus conidia” value in the assay on A. fumigatus conidia [1] is “successfully bound”. For the same molecule, the “peptide binding to A. fumigatus conidia with calcium” value in the assay on A. fumigatus conidia [1] (5 μg/ml, barbital buffer (containing Ca2+) without EDTA) is on record as “bound equally well”. In the assay with A. fumigatus conidia [1] (5 μg/ml, barbital buffer with 20 mM EDTA), the “peptide binding to A. fumigatus conidia without calcium” value is on record as “bound equally well”. In addition, the “peptide binding to A. fumigatus conidia (median fluorescence intensity), CCP2 domain comparison” value in the assay with A. fumigatus conidia [1] (5 and 10 μg/ml, heat-inactivated conidia, BD Celesta) was “bound”. Besides, the “peptide binding to A. niger conidia” value in the assay on A. niger is “successfully bound”. In addition, in the assay with A. terreus, the “peptide binding to A. terreus conidia” value is listed as “successfully bound”. Further, the “peptide binding to A. flavus conidia” value in the assay with A. flavus is reported as “successfully bound”. In addition, the “peptide binding to Lichtemia corymbifera conidia” value with Lichtemia corymbifera is “successfully bound”. The “peptide binding to Mucor circinelloides conidia” value in the assay on Mucor circinelloides is recorded as “successfully bound”. Also, the “peptide binding to Rhizopus arrhizus conidia” value in the assay with Rhizopus arrhizus is on record as “successfully bound”. Besides, the “peptide binding to HMEC-1 endothelial cell line” value in the assay on HMEC-1 cells is “did not show any binding”. In the assay on THP-1 cells, the “peptide binding to THP-1 monocytic cell line” value was “did not show any binding”.

B1: wild-type rMASP-1 (^444KLMAR^448): recombinant wild-type MASP-1, a serine protease from the complement system, containing 444KLMAR448 (protein, UniProt P48740 20-699, looked up)
Mannan-binding lectin serine …: HTVELNNMFGQIQSPGYPDSYPSDSEVTWNITVPDGFRIKLYFMHFNLESSYLCEYDYVKVETEDQVLATFCGRETTDTEQTPGQEVVLSPGSFMSITFRSDFSNEERFTGFDAHYMAVDVDECKEREDEELSCDHYCHNYIGGYYCSCRFGYILHTDNRTCRVECSDNLFTQRTGVITSPDFPNPYPKSSECLYTIELEEGFMVNLQFEDIFDIEDHPEVPCPYDYIKIKVGPKVLGPFCGEKAPEPISTQSHSVLILFHSDNSGENRGWRLSYRAAGNECPELQPPVHGKIEPSQAKYFFKDQVLVSCDTGYKVLKDNVEMDTFQIECLKDGTWSNKIPTCKIVDCRAPGELEHGLITFSTRNNLTTYKSEIKYSCQEPYYKMLNNNTGIYTCSAQGVWMNKVLGRSLPTCLPVCGLPKFSRKLMARIFNGRPAQKGTTPWIAMLSHLNGQPFCGGSLLGSSWIVTAAHCLHQSLDPEDPTLRDSDLLSPSDFKIILGKHWRLRSDENEQHLGVKHTTLHPQYDPNTFENDVALVELLESPVLNAFVMPICLPEGPQQEGAMVIVSGWGKQFLQRFPETLMEIEIPIVDHSTCQKAYAPLKKKVTRDMICAGEKEGGKDACAGDSGGPMVTLNRERGQWYLVGTVSWGDDCGKKDRYGVYSYIHHNKDWIQRVTGVRN
As for B1, in the assay on Aspergillus fumigatus, the “recombinant MASP-1 binding to A. fumigatus growth stages” value is “binding was detected for all growth stages”. Further, the “binding of rMASP-1 to A. fumigatus conidia (mean fluorescence intensity)” value (“binding … (mean fluorescence intensity)” below) in the assay on A. fumigatus conidia [2] is reported as “binds”.

B2: mutated rMASP-1 (^444DDDDK^448): recombinant MASP-1 in which 444KLMAR448 was substituted by DDDDK (SEQ ID NO: 4), activated version (protein, UniProt P48740 20-699, looked up, variant K444D L445D M446D A447D R448K)
Mannan-binding lectin serine …: B1 Mannan-binding lectin serine … with K425D, L426D, M427D, A428D, R429K
modifications: activated
Regarding B2, the entries for the “binding … (mean fluorescence intensity)” value with A. fumigatus conidia [2] and with A. fumigatus conidia [2] (listed as active mutated rMASP-1) were “did not bind” and “Neither the active nor zymogen mutated rMASP-1 (44^4DDDDK^448) bound”, respectively.

B3: zymogen mutated rMASP-1: zymogen version of the mutated rMASP-1 (444DDDDK448) (protein, UniProt P48740 20-699, looked up, variant K444D L445D M446D A447D R448K)
pro-form: B1 Mannan-binding lectin serine … with K425D, L426D, M427D, A428D, R429K
modifications: pro-form zymogen, enterokinase site
Turning to B3, the “binding … (mean fluorescence intensity)” value in the assay with A. fumigatus conidia [2] was “Neither the active nor zymogen mutated rMASP-1 (44^4DDDDK^448) bound”.
